Earlier results, collected in patent publication US7901689B2, “Chimeric peptides as immunogens, antibodies thereto, and methods for immunization using chimeric peptides or antibodies” (Intellect Neurosciences, Inc., priority 1999, dated 2011).

Legend:
Aβ production = conditions: Knops et al., 1995, Haass et al., read-out: EC50 for inhibition of Aβ production
[1] = system: Aβ-induced toxicity in cultured neurons; conditions: Yankner et al., 1995
[2] = system: Alzheimer's disease-like pathology in PDAPP transgenic mice; conditions: Schenk et al. 1999

CO/C1=C\C(C)=C\[C@@H](C)[C@@H](O)[C@@H](C)C/C(C)=C/C=C/[C@H](OC)[C@@H]([C@@H](C)[C@@H](O)[C@H](C)[C@@]2(O)C[C@@H](O)[C@H](C)[C@@H](C(C)C)O2)OC1=O [Bafilomycin]
EC50 (Aβ production): ~50 nM

Nc1c(/N=N/c2ccc(-c3ccc(/N=N/c4cc(S(=O)(=O)O)c5ccccc5c4N)cc3)cc2)cc(S(=O)(=O)O)c2ccccc12 [Congo Red]
Aβ-induced toxicity in cultured neurons [1]: completely inhibits

amyloid-β: intact amyloid-β used as immunogen by Schenk et al. (1999)
development of β-amyloid plaque formation, neuritic dystrophy and astragliosis ([2]; immunization of young animals prior to onset of neuropathologies): essentially prevented | extent and progression of Alzheimer's disease-type neuropathologies ([2]; treatment in older animals after onset of neuropathologies): reduce the extent and progression
